# Experimental data: publication PMC9537541, “Synthesis and anticancer activity of new benzensulfonamides incorporating s-triazines as cyclic linkers for inhibition of carbonic anhydrase IX” (Scientific Reports, 2022)
# Columns and labels:
# hCA I = target: T1, hCA I (Homo sapiens, UniProt P00915); experiment: stopped-flow CO2 hydrase assay, hCA I; format: biochemical; details: stopped flow technique, mean from 3 different assays
# T1 construct: made in house
# Protocol: (§1) Target compounds of series (A) and (B) were screened as inhibitors concerning the physiologically relevant hCAs; cytosolic isoforms (hCA I and II) in addition to the transmembrane tumor related isoforms (hCA IX and XII) via a stopped-flow assay of carbonic anhydrase catalyzed CO2 hydration. Acetazolamide (AAZ), CA I drug, was also incorporated in the assays as a standard drug. […] Four CA isoforms inhibition activity was measured by assaying CA catalyzed CO2 hydration via an applied photophysics stopped-flow instrument. PRISM 3 and the Cheng-prusoff equation were used to determine the inhibition constant by non-linear least square methods as reported, and represent the mean from three different determination at least. All tested carbonic anhydrase isoforms were recombinant proteins prepared in lab as described earlier,[57].
# hCA II = target: T2, hCA II (Homo sapiens, UniProt P00918); experiment: stopped-flow CO2 hydrase assay, hCA II; format: biochemical; details: stopped flow technique, mean from 3 different assays
# T2 construct: made in house
# Protocol: as §1
# hCA XII = target: T3, hCA XII (Homo sapiens, UniProt O43570); experiment: stopped-flow CO2 hydrase assay, hCA XII; format: biochemical; details: for Ki: stopped flow technique, mean from 3 different assays; for Selectivity index (SI) I/XII: hCA XII over off-target hCA I; for Selectivity index (SI) II/XII: hCA XII over off-target hCA II
# T3 construct: made in house
# Protocol: as §1
# CNS cancer (SNB-75) = experiment: NCI single dose SRB screen, SNB-75; format: cell-based; details: Homo sapiens, SNB-75, 48 h, 10^−5 M single dose, read-out: GI% CNS cancer (SNB-75)
# Protocol: (§2) Target compounds in series (A) and (B), were submitted to the National Cancer Institute (NCI) Developmental Therapeutic Program (www.dtp.nci.nih.gov), where they have been assessed, in vitro for their anticancer activity. Two series (A) and (B), were screened in a single dose (10 µM) versus full panel composed of 60 cancer cell lines, in accordance with protocol of drug evaluation branch, NCI, Bethesda. Sulforhodamine B (SRB) colorimetric assay was used to determine cell growth and viability,[40].
# (§3) Protocol of Drug Evaluation Branch, NCI, Bethesda, was adopted in the antitumor assay. Assessment of cell growth and viability was carried out utilizing SRB assay and 48 h drug exposure protocol as previously reported,[40].
# Renal cancer (UO-31) = experiment: NCI single dose SRB screen, UO-31; format: cell-based; details: Homo sapiens, UO-31, 48 h, 10^−5 M single dose, read-out: GI% Renal cancer (UO-31)
# Protocol: as §2, §3
# [1] = test system: Breast cancer (MDA-MB-468); experiment: NCI single dose SRB screen, MDA-MB-468; format: cell-based; details: for inhibition at 10 µM: Homo sapiens, MDA-MB-468, 48 h, 10^−5 M single dose, 48 h, SRB, read-out: GI% Breast cancer (MDA-MB-468)
# Protocol: as §2, §3
# Leukemia (SR) = experiment: NCI single dose SRB screen, SR; format: cell-based; details: 48 h, 10^−5 M single dose, read-out: GI% Leukemia (SR)
# Protocol: as §2, §3
# Leukemia (CCRF-CEM) = experiment: NCI single dose SRB screen, CCRF-CEM; format: cell-based; details: normoxic condition (5% CO2, 95% air at 37 °C), NCI protocol
# Protocol: as §2, §3
# [2] = test system: non-small cell lung cancer (HOP-92); experiment: NCI single dose SRB screen, HOP-92; format: cell-based; details: 10 µM single dose
# Protocol: as §2, §3
# [3] = test system: Breast cancer (MDA-MB-468); experiment: anti-proliferative activity under hypoxic condition (MTT), MDA-MB-468; format: cell-based
# Protocol: (§4) All cells were incubated in hypoxic atmosphere (1% O2, 5% CO2, and 94%N2) and maintained at 37 °C. All procedures to determine compounds cytotoxicity were accomplished using MTT assay as reported,[59],[60].
# leukemia (CCRF-CM) = experiment: anti-proliferative activity under hypoxic condition (MTT), CCRF-CM; format: cell-based
# Protocol: as §4
# hCA IX = target: T4, hCA IX (Homo sapiens, UniProt Q16790); experiment: stopped-flow CO2 hydrase assay, hCA IX; format: biochemical; details: for Selectivity index (SI) I/IX: hCA IX over off-target hCA I; for Selectivity index (SI) II/IX: hCA IX over off-target hCA II; for Ki: stopped flow technique, mean from 3 different assays
# T4 construct: made in house
# Protocol: as §1
# [4] = hypoxic condition (1% O2, 5% CO2, and 94%N2 at 37 °C)
# T1 sequence (P00915 whole entry): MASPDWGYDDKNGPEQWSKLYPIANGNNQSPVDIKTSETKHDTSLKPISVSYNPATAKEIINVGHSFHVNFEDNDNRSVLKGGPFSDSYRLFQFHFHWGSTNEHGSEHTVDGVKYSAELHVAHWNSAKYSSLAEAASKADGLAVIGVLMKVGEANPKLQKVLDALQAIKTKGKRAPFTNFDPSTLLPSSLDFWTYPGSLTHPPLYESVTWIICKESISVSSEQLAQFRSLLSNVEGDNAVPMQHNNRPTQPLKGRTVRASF
# T3 sequence (O43570 25-354): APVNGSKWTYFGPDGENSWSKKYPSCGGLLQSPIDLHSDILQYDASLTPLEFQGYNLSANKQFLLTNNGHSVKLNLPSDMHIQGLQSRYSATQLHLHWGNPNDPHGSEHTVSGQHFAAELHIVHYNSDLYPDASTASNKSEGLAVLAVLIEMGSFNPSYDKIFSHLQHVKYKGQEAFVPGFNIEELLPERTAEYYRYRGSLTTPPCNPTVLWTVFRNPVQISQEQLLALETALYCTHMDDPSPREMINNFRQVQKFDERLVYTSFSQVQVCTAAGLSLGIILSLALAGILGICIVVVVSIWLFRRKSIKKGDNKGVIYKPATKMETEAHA
Ki (hCA I),Ki (hCA II),Ki (hCA XII),"IC50 ([3]; Homo sapiens, MDA-MB-468, hypoxic conditions (1%O2, 5% CO2 and 94% N2), mean ± S.D. of three experiments)","IC50 (leukemia (CCRF-CM); hypoxic conditions (1%O2, 5% CO2 and 94% N2), mean ± S.D. of three experiments)",Selectivity index (SI) I/IX (hCA IX),Selectivity index (SI) II/IX (hCA IX),Ki (hCA IX),Selectivity index (SI) I/XII (hCA XII),Selectivity index (SI) II/XII (hCA XII),melting point,Structure (SMILES),inhibition at 10 µM (CNS cancer (SNB-75)),inhibition at 10 µM (Renal cancer (UO-31)),inhibition at 10 µM [1],"GI% Normoxia MDA-MB-468 ([1]; normoxic condition (5% CO2, 95% air at 37 °C), NCI protocol)",inhibition at 10 µM (Leukemia (SR)),GI% Normoxia CCRF-CM (Leukemia (CCRF-CEM)),GI% non-small cell lung cancer (HOP-92) [2],"GI% Hypoxia MDA-MB-468 [3, 4]",GI% Hypoxia CCRF-CM (leukemia (CCRF-CM); [4])
0.48 µM,0.253 µM,0.182 µM,1.48 ± 0.08 µM,9.83 ± 0.52 µM,,,,,,,"N#C/C(=C\c1cccc(F)c1)c1nc(N)nc(Nc2ccc(S(N)(=O)=O)cc2)n1 [Compound 12i, 4-({4-Amino-6-[(1E)-1-cyano-2-(3-fluorophenyl)eth-1-en-1-yl]-1,3,5-triazin-2-yl}amino)benzene-1-sulfonamide]",≤ 10%,20%,17%,16.58%,≤ 10%,0.76%,16%,64.75%,50.14%
0.962 µM,1.94 µM,8.68 µM,,,0.7,1.4,1.39 µM,0.1,0.2,281 to 283 °C,"COc1ccc(/C=C(\C#N)c2nc(N)nc(Nc3ccc(S(N)(=O)=O)cc3)n2)cc1 [Compound 12c, 4-({4-Amino-6-[(1E)-1-cyano-2-(4-methoxyphenyl)eth-1-en-1-yl]-1,3,5-triazin-2-yl}amino)benzene-1-sulfonamide]",≤ 10%,14%,22%,,16%,,,,
0.59 µM,0.493 µM,4.2 µM,,,3,2.5,0.195 µM,0.1,0.1,234 to 236 °C,"N#C/C(=C\c1ccc(F)cc1)c1nc(N)nc(Nc2ccc(S(N)(=O)=O)cc2)n1 [Compound 12f., 4-({4-Amino-6-[(1E)-1-cyano-2-(4-fluorophenyl)eth-1-en-1-yl]-1,3,5-triazin-2-yl}amino)benzene-1-sulfonamide]",10%,15%,15%,,11%,,,,
